# From ChEMBL document CHEMBL4421722, “Inhibitors of protein prenyltransferases” (2013)
# Species: Rattus norvegicus
# Assay: Inhibition of rat recombinant geranylgeranyltransferase type I expressed in Escherichia coli assessed as residual enzyme activity for geranylgeranylation of K-Ras4B at 50 uM incubated for 30 mins in presence of [3H]GGPP by scintillation counting assay relative to control
row,Compound,Activity [%]
1,COc1ccc([C@@H]2CC=C(C(=O)O)[C@H](c3ccc(C)cc3)N2S(=O)(=O)c2ccccc2)cc1,88.2
2,CCOc1ccc([C@@H]2C[C@@H](Sc3ccc(C)cc3)[C@H](C(=O)O)CN2S(=O)(=O)c2ccc(C)cc2)cc1,65.4
3,CCCCCS[C@@H]1C[C@@H](c2ccc(C)cc2)N(S(C)(=O)=O)C[C@H]1C(=O)O,107
4,CCS[C@@H]1C[C@@H](c2ccc(C)cc2)N(S(C)(=O)=O)C[C@H]1C(=O)O,94.8
5,Cc1ccc(S(=O)(=O)N2[C@@H](c3ccc(F)cc3)C(C(=O)O)=CC[C@H]2c2cccs2)cc1,62.3
6,COc1cccc([C@@H]2C[C@@H](SCc3ccc(C(C)(C)C)cc3)[C@H](C(=O)O)CN2S(=O)(=O)c2ccc(C)cc2)c1,39
7,Cc1ccc(S(=O)(=O)N2[C@@H](c3cccc(C)c3)C(C(=O)O)=CC[C@H]2c2ccccc2)cc1,64.9
8,Cc1ccc(S(=O)(=O)N2C[C@@H](C(=O)O)[C@H](SCCC(C)C)C[C@H]2c2ccc(Cl)cc2)cc1,39.4
9,Cc1ccc(S(=O)(=O)N2[C@@H](c3ccc(Cl)cc3)C(C(=O)O)=CC[C@H]2c2ccccc2)cc1,69.7
10,C=CCS[C@@H]1C[C@@H](c2ccc(Cl)cc2)N(S(=O)(=O)c2ccc(C)cc2)C[C@H]1C(=O)O,49.1
11,CCS[C@@H]1C[C@@H](c2ccc(C)cc2)N(S(=O)(=O)c2ccc(C)cc2)C[C@H]1C(=O)O,90.1
12,COc1ccc([C@@H]2CC=C(C(=O)O)[C@H](c3ccc(F)cc3)N2S(=O)(=O)c2ccccc2C)cc1,66.1
13,Cc1ccc([C@H]2C(C(=O)O)=CC[C@@H](c3ccc4c(c3)OCO4)N2S(=O)(=O)c2ccc(C)cc2)cc1,75.7
14,COc1ccc(S[C@@H]2C[C@@H](c3ccccc3)N(S(=O)(=O)c3ccc(C)cc3)C[C@H]2C(=O)O)cc1,99.1
15,Cc1ccc(S(=O)(=O)N2[C@@H](c3cccc(C)c3)C(C(=O)O)=CC[C@H]2c2cccc(F)c2)cc1,60.5
16,CCCCCCS[C@@H]1C[C@@H](c2ccc(C)cc2)N(S(=O)(=O)c2ccccc2)C[C@H]1C(=O)O,81.2
17,COc1ccc([C@@H]2C[C@@H](Sc3ccccc3)[C@H](C(=O)O)CN2S(=O)(=O)c2ccccc2)cc1,103
18,Cc1ccc(S(=O)(=O)N2C[C@@H](C(=O)O)[C@H](SC3CCCC3)C[C@H]2c2ccccc2F)cc1,93.4
19,CCS[C@@H]1C[C@@H](c2ccccc2F)N(S(=O)(=O)c2ccc(C)cc2)C[C@H]1C(=O)O,89.4
20,Cc1ccc(S(=O)(=O)N2[C@@H](c3ccc(Br)cc3)C(C(=O)O)=CC[C@H]2c2ccc3c(c2)OCO3)cc1,74.4
21,CCCCCCS[C@@H]1C[C@@H](c2ccccc2F)N(S(=O)(=O)c2ccc(C)cc2)C[C@H]1C(=O)O,75.3
22,Cc1ccc(S(=O)(=O)N2[C@@H](c3ccc(Br)cc3)C(C(=O)O)=CC[C@H]2c2ccccc2)cc1,74.6
23,CCOc1ccc([C@@H]2C[C@@H](SCC(C)C)[C@H](C(=O)O)CN2S(=O)(=O)c2ccc(C)cc2)cc1,83.1
24,CCCS[C@@H]1C[C@@H](c2ccc(Cl)cc2)N(S(=O)(=O)c2ccc(C)cc2)C[C@H]1C(=O)O,71
25,CCOc1ccc([C@@H]2CC=C(C(=O)O)[C@H](c3cccc(F)c3)N2S(=O)(=O)c2ccc(C)cc2)cc1,87.5
26,COC(=O)c1ccccc1S(=O)(=O)N1[C@@H](c2cccc(C)c2)C(C(=O)O)=CC[C@H]1c1ccc(C)cc1,54.2

# Results, then the compound that gave them:
row,Activity [%],Compound
1,62,Cc1ccc([C@@H]2C[C@@H](SCc3ccc(C(C)(C)C)cc3)[C@H](C(=O)O)CN2S(=O)(=O)c2ccc(Cl)cc2)cc1
2,58,Cc1ccc(S(=O)(=O)N2[C@@H](c3cccc(C)c3)C(C(=O)O)=CC[C@H]2c2cccc(C)c2)cc1
3,99.4,CCCS[C@@H]1C[C@@H](c2ccc(C)cc2)N(S(=O)(=O)c2ccccc2C)C[C@H]1C(=O)O
4,63.2,Cc1ccc([C@@H]2C[C@@H](Sc3ccccc3)[C@H](C(=O)O)CN2S(=O)(=O)c2ccc(C)cc2)cc1
5,72.2,CCCCCCS[C@@H]1C[C@@H](c2ccc(Cl)cc2)N(S(=O)(=O)c2ccc(C)cc2)C[C@H]1C(=O)O
6,68.1,Cc1ccc(S(=O)(=O)N2[C@@H](c3ccc(F)cc3)C(C(=O)O)=CC[C@H]2c2ccccc2)cc1
7,79.9,Cc1ccc([C@@H]2CC=C(C(=O)O)[C@H](c3ccc(Cl)cc3)N2S(=O)(=O)c2ccccc2)cc1
8,71.2,Cc1ccc(S(=O)(=O)N2[C@@H](c3ccc(F)cc3)C(C(=O)O)=CC[C@H]2c2cccc(C)c2)cc1
9,87.1,CCOc1ccc([C@@H]2C[C@@H](SCC)[C@H](C(=O)O)CN2S(=O)(=O)c2ccc(C)cc2)cc1
10,64.8,Cc1ccc(S(=O)(=O)N2[C@@H](c3ccc(Cl)cc3)C(C(=O)O)=CC[C@H]2c2ccc(F)cc2)cc1
11,55,Cc1ccc(S(=O)(=O)N2[C@@H](c3cccc(Br)c3)C(C(=O)O)=CC[C@H]2c2cccs2)cc1
12,62.4,Cc1ccc(S[C@@H]2C[C@@H](c3ccc(C)cc3)N(S(=O)(=O)c3ccc(C)cc3)C[C@H]2C(=O)O)cc1
13,92.1,Cc1ccc(S(=O)(=O)N2C[C@@H](C(=O)O)[C@H](SCc3ccccc3)C[C@H]2c2ccccc2)cc1
14,108,C=CCS[C@@H]1C[C@@H](c2ccc(OC)cc2)N(S(=O)(=O)c2ccc(C)cc2)C[C@H]1C(=O)O
15,77.4,COC(=O)c1ccccc1S(=O)(=O)N1[C@@H](c2ccc(Br)cc2)C(C(=O)O)=CC[C@H]1c1ccc(C)cc1
16,85.5,COc1ccc(S[C@@H]2C[C@@H](c3ccc(Cl)cc3)N(S(=O)(=O)c3ccc(C)cc3)C[C@H]2C(=O)O)cc1
17,73.6,CCc1ccc([C@@H]2CC=C(C(=O)O)[C@H](c3cccc(Cl)c3)N2S(=O)(=O)c2ccc(C)cc2)cc1
18,54.8,Cc1ccc([C@H]2C(C(=O)O)=CC[C@@H](c3ccc(F)cc3)N2S(=O)(=O)c2ccc(C)cc2)cc1
19,87.2,Cc1ccc(S(=O)(=O)N2[C@@H](c3ccc(C(C)(C)C)cc3)C(C(=O)O)=CC[C@H]2c2ccc3c(c2)OCO3)cc1
20,70.9,CCCCCCS[C@@H]1C[C@@H](c2ccc(C)cc2)N(S(=O)(=O)c2ccc(C)cc2)C[C@H]1C(=O)O
21,85,CCc1ccc([C@@H]2C[C@@H](Sc3ccc(C)cc3)[C@H](C(=O)O)CN2S(=O)(=O)c2ccc(C)cc2)cc1
22,92.9,Cc1ccc([C@@H]2C[C@@H](SCCC(C)C)[C@H](C(=O)O)CN2S(=O)(=O)c2ccc(C)cc2)cc1
23,75.4,CCc1ccc([C@@H]2CC=C(C(=O)O)[C@H](c3cccc(Br)c3)N2S(=O)(=O)c2ccc(C)cc2)cc1
24,73.8,COc1ccc([C@@H]2CC=C(C(=O)O)[C@H](c3ccc(C)cc3)N2S(=O)(=O)c2ccc(C)cc2)cc1
25,69.5,Cc1ccc([C@@H]2CC=C(C(=O)O)[C@H](c3ccc(Br)cc3)N2S(=O)(=O)c2ccc(Cl)cc2)cc1
26,67.1,CCCCCS[C@@H]1C[C@@H](c2ccc(OC)cc2)N(S(=O)(=O)c2ccccc2C)C[C@H]1C(=O)O
27,91.4,CCCS[C@@H]1C[C@@H](c2ccc(OC)c(OC)c2)N(S(=O)(=O)c2ccc(C)cc2)C[C@H]1C(=O)O
28,110,COc1ccc(S[C@@H]2C[C@@H](c3cc(OC)c(OC)c(OC)c3)N(S(=O)(=O)c3ccc(C)cc3)C[C@H]2C(=O)O)cc1
29,92.9,Cc1ccc([C@H]2C(C(=O)O)=CC[C@@H](c3ccccc3F)N2S(=O)(=O)c2ccc(C)cc2)cc1
30,87,CCc1ccc([C@@H]2C[C@@H](SC3CCCC3)[C@H](C(=O)O)CN2S(=O)(=O)c2ccc(C)cc2)cc1
